We go through two molecules from patent publication US20230204594A1, “SYSTEMS AND METHODS FOR REAL-TIME CELLULAR DRUG-TARGET ENGAGEMENT” (NERD BIO LLC, priority 2021, published 2023).

Read-outs that look alike come from different tables or passages of the source.

In test [1] the target is T1, BCL6 Micro-tagged protein (BCL6-S-tag fusion protein) (Homo sapiens, UniProt P41182).
T1 construct: expressed in transfected cells; host or cells: HEK293, lysate (1% Triton X-100 in TBS)
Kind of test: Small molecule target engagement screening on lysates, micro-tagged BCL6 heated at Tmin. Format: binding. The protocol: HEK293 cells were transfected using Lipofectamine 2000 according to manufacturer protocol. Two days after transfection, media was removed and cells lifted by pipetting up and down using 1×TBS. Cells were centrifuged at 400 g for 4 min. The TBS wash was removed and the cells lysed with either 1% Triton X 100 in TBS for MTH1 and BCL6, or 0.5% DDM in TBS for EGFR expressing cells. Cells were lysed at 4° C. on a rotator for 1 hour and cell debris removed by gentle centrifugation for 1 minute at 6000 rpm. Lysates were transferred to a new tube and aliquots that were not used immediately in the assay were frozen at −80° C. for future use.
Small molecule compounds were dissolved in DMSO at 10 mM and serial dilutions in DMSO at 100× concentration were prepared from this stock. Lysates from cells expressing the micro-tagged (S-peptide tagged) protein were diluted with cold 1×TBS at 1/10 and 39.6 ul aliquoted to a PCR plate; […]. The heated sample (30 ul) was added and fluorescence detected using a microplate reader. The plate was read in kinetic mode (excitation=485 nm, emission=520 nm) with the PolarStar Omega 96-well plate reader.
For analysis, the RAW fluorescence signal or fluorescence change per minute was plotted with inhibitor dose on a Semi-Log scale using GraphPad Prism. Nonlinear regression analysis was used for curve fitting to identify EC50 of target engagement or apparent KD.
After 4 minutes incubation the fluorescence detected could be plotted with dose of inhibitor tested on a semi-log scale. Using nonlinear regression analysis and fitting a Sigmoidal dose-response curve (with variable slope) using GraphPad Prism identified an EC50 of Target Engagement. […] The peak fluorescence signal identified the dose of inhibitor that saturates the micro-tag protein target. At concentrations of the inhibitor above this saturating dose there was rapid cleavage of the FRET-labeled substrate resulting in loss of fluorescence signal over time (Relative Light Unit per minute (RLU/min)) and lower fluorescence detected. At concentrations below this saturating dose the micro-tag construct was denatured in the heat challenge and there was less micro-tag available for enzyme complementation resulting in lower fluorescence signal (FIG. 36A). […].

Test [2] concerns the target BCL6 (Homo sapiens, UniProt P41182). The conditions noted are these: known value, read-out: in vitro IC50, cited from earlier work.

The term IC50 denotes the concentration at which inhibition is half-maximal. In the case of `C[C@@H]1C[C@H](C)CN(c2ncc(Cl)c(Nc3ccc4c(c3)cc(OC(C)(C)C(=O)O)c(=O)n4C)n2)C1` [BI-5273], the “binding to the BCL6 micro-tag target” value in test [1] (HEK293 lysates, heated at Tmin, 4 minutes incubation, FIG. 38B) is listed as “did not bind the target”. For the same molecule, the half-maximal inhibitory concentration (IC50) in test [2] (inactive structural analog) was around 10000 nM.

Turning to `CNC(=O)COc1cc2cc(Nc3nc(N4CCC(C(=O)N(C)C)CC4)ncc3Cl)cc(OC)c2n(C)c1=O` [BI-3812], the EC50 is 0.63 nM in test [1] (HEK293 lysates, heated at Tmin, fluorescence after 4 minutes incubation, FIG. 38A, read-out: EC50 of target engagement) and 0.9 nM in test [1] (after 15 minutes, FIG. 39B, read-out: EC50 of target engagement after removal of data points beyond the target saturation dose). Also, in test [1] (Saturation Binding Equation (One-site total), after 15 minutes, FIG. 39C, read-out: Apparent Equilibrium Dissociation Constant (apparent KD)), the Kd turned out to be 1.6 nM. Besides, in test [2] (well-characterized inhibitor), the IC50 is around 3 nM.
